Laboratory results: US20220185791A1, “POLYMORPHS OF A CARDIAC TROPONIN ACTIVATOR” (Amgen Inc., priority 2019, published 2022)
Converted amounts (≈) assume the structure as drawn.

What was measured:
[1] = Solubility in water (excess solid, UPLC-UV); assay type: physicochemical; details: thermodynamic from solid, room temperature
Description: Suspensions were filtered.

[2] = Solid stability (UPLC; XRPD, DSC, TGA); assay type: physicochemical; details: 5 weeks at 25° C./60% RH, 40° C./75% RH, 40° C./ambient or 60° C./ambient
Description: Drug substance was stored at 25° C./60% RH, 40° C./75% RH, 40° C./ambient or 60° C./ambient conditions. Chemical stability was determined at each time point by dissolving the drug substance in 50% acetonitrile water for ultra performance liquid chromatography (“UPLC”) analysis. Physical stability was determined by analyzing the solid by XRPD, DSC and TGA.

## CS(=O)(=O)c1cncc(C(=O)N2[C@@H](C(=O)N[C@@H](c3cc(F)c(Cl)cc3F)C3CC3)C[C@H]3C[C@H]32)c1 [Form I, (1R,3R,5R)-N-((R)-(4-chloro-2,5-difluorophenyl)(cyclopropyl)methyl)-2-(5-(methylsulfonyl)nicotinoyl)-2-azabicyclo[3.1.0]hexane-3-carboxamide]
[1]
  solubility: 9 µg/mL (≈ 17.6 µM)
[2]
  Physical and chemical stability on storage: physically and chemically stable
